Data: patent US4132790A
Like-named read-outs stand apart in the source and are kept apart here.

Assays:
Pseudomonas solanacearum = format: in vivo; details: scale 0 to 4; for Disease Rating: light infection in controls; for rating: heavy infestation in controls
[1] = test system: Ascaris lumbricoides var. suum; assay: anthelmintic test in infected mice, treated feed; format: in vivo; details: Example 13, 0.05 percent in diet, control 2.66
From the text: The feeds were utilized as diets for separate groups of mice, five mice per group. About twelve hours after initiation of the feeding, the mice were infected with Ascaris lumbricoides var. suum ova. Another group of five mice was fed the non-medicated feed to serve as a control but was similarly infected at the same time with Ascaris lumbricoides var. suum. All groups were fed their respective feed and maintained under normal laboratory conditions for a period of eight days, at which time all mice were taken off feed. On the ninth day, all mice were sacrified and the lungs examined to determine the presence, and if present, numbers, of lesions of Ascaris lumbricoides var. suum.
Another evaluation was conducted under the procedures reported in Example II, except that the rates were varied. The results were as follows:
In a further evaluation, the monoammonium salts of A16886I and A16886II were separately evaluated for the control of Ascaris lumbricoides var. suum. The evaluations were conducted in accordance with the procedure reported in Example 11 at a concentration in the diet of 0.05 percent.

solubility = format: physicochemical; details: monoammonium salt
Xanthomonas vesicatoria = assay: field trial, bacterial spot control on tomato plants; format: in vivo; details: for Percent Bacterial Spot Control First Reading: one week; for Percent Bacterial Spot Control Second Reading: two weeks
Protocol: (§1) A mixture of the monoammonium salt of A16886I and the monoammonium salt of A16886II was tested under field conditions for the control of Xanthomonas vesicatoria (bacterial spot) on mature bearing tomato plant. The mixture of the two salts was dispersed in water at a concentration of 100, 200, or 400 parts per million and applied to the plants at the rate of 75 gallons per acre. Application was made with a CO2 sprayer at 50 psi. Plants were sprayed twice, on successive days; after the second spray had dried, all plants were wounded by sand blasting and then within one minute the plants were inoculated with a bacterial inoculum of Xanthomonas vesicatoria. Three days later, a third spray application of the aqueous formulation of A16886 was made. Readings were made one week and two weeks after the last spray treatment. Controls consisted of groups of plants (1) sand blasted and inoculated; (2) sand blasted only; (3) untreated; and (4) treated with streptomycin (on the same three-day spraying schedule, at a concentration of 100, 200, or 400 parts per million of aqueous solution, using a rate of 75 gallons per acre), sand blasted, and inoculated. The results were as set forth in the following table, in which crop injury is reported on a scale of 0-10, with 0 = no injury and 10 = dead plants; and control of bacterial spot is reported on a percentage basis.

tomato plant = assay: field trial, crop injury; format: in vivo; details: scale 0 = no injury, 10 = dead plants; for Crop Injury Ratings First Reading: one week; for Crop Injury Ratings Second Reading: two weeks
Protocol: as §1

For COC1(NC(=O)CCCC(N)C(=O)O)C(=O)N2C(C(=O)O)=C(COC(N)=O)CS[C@@H]21 (some centres unmarked) [A16886I, 7-(5-amino-5-carboxyvaleramido)-3-(carbamoyloxymethyl)-7-methoxy-3-cephem-4-carboxylic acid], the “Disease Rating” value (Pseudomonas solanacearum; Example 7, 10 ppm) was 2, the “Disease Rating” value (Pseudomonas solanacearum; Example 7, 100 ppm) was 4 and the rating (Pseudomonas solanacearum; Example 8, 200 ppm) was 4. The rating (Pseudomonas solanacearum; Example 8, 400 ppm) was 4, the “Average Number of Lung Lesions Per Group” value [1] was 0.46 and the “solubility in acetonitrile and other organic solvents” value (solubility) was “essentially insoluble”. For the same compound, the “solubility in lower alkanols” value (solubility) was “slightly soluble” and the solubility in water (solubility) was “very soluble”.

With NC(=O)OCC1=C(C(=O)O)N2C(=O)C(NC(=O)CCCC(N)C(=O)O)[C@H]2SC1 (some centres unmarked) [A16886II, 7-(5-amino-5-carboxyvaleramido)-3-(carbamoyloxymethyl)-3-cephem-4-carboxylic acid] the “Disease Rating” value (Pseudomonas solanacearum; Example 7, 10 ppm) was 1, the “Disease Rating” value (Pseudomonas solanacearum; Example 7, 100 ppm) was 4 and the “Average Number of Lung Lesions Per Group” value [1] was 0.20. The “solubility in acetonitrile and other organic solvents” value (solubility) was “essentially insoluble”, the “solubility in lower alkanols” value (solubility) was “slightly soluble” and the solubility in water (solubility) was “very soluble”.

In the case of [H]/N=C(/N)N[C@H]1[C@H](O)[C@@H](O)[C@H](O[C@@H]2O[C@@H](C)[C@](O)(C=O)[C@H]2O[C@@H]2O[C@@H](CO)[C@H](O)[C@@H](O)[C@@H]2NC)[C@@H](N/C(N)=N\[H])[C@@H]1O [Streptomycin], the “Percent Bacterial Spot Control First Reading” value (Xanthomonas vesicatoria; 100 parts/million) is reported as 83%, the “Percent Bacterial Spot Control Second Reading” value (Xanthomonas vesicatoria; 100 parts/million) is reported as 57% and the “Percent Bacterial Spot Control First Reading” value (Xanthomonas vesicatoria; 200 parts/million) is reported as 81%. For the same compound, the “Percent Bacterial Spot Control Second Reading” value (Xanthomonas vesicatoria; 200 parts/million) was 37%, the “Percent Bacterial Spot Control First Reading” value (Xanthomonas vesicatoria; 400 parts/million) was 83% and the “Percent Bacterial Spot Control Second Reading” value (Xanthomonas vesicatoria; 400 parts/million) was 59%. The “Crop Injury Ratings First Reading” value (tomato plant; 100 parts/million) was 0, the “Crop Injury Ratings Second Reading” value (tomato plant; 100 parts/million) was 0 and the “Crop Injury Ratings First Reading” value (tomato plant; 200 parts/million) was 0. The “Crop Injury Ratings Second Reading” value (tomato plant; 200 parts/million) was 0, the “Crop Injury Ratings First Reading” value (tomato plant; 400 parts/million) was 0 and the “Crop Injury Ratings Second Reading” value (tomato plant; 400 parts/million) was 0.
